From ChEMBL document CHEMBL1255490, “In vitro activities of DC-159a, a novel fluoroquinolone, against Mycobacterium species” (Antimicrob Agents Chemother, 2010)
Values after ≈ are worked out from the molar mass of the structure shown.

tested on: Mycobacterium tuberculosis; experiment: Antimycobacterial activity against quinolone-resistant multidrug-resistant Mycobacterium tuberculosis after 21 days by agar dilution method; assay type: functional; details: 504 h

Row | SMILES | MIC [µg/mL] | MIC50 [µg/mL] | MIC90 [µg/mL]
1 | COc1c(N2CC3(CC3)[C@](C)(N)C2)c(F)cc2c(=O)c(C(=O)O)cn([C@@H]3C[C@@H]3F)c12 | 0.125 (≈ 0.298 µM) | 0.125 (≈ 0.298 µM) | 0.5 (≈ 1.19 µM)
2 | COc1c(N2C[C@@H]3CCCN[C@@H]3C2)c(F)cc2c(=O)c(C(=O)O)cn(C3CC3)c12 [MOXIFLOXACIN] |  | 2 (≈ 4.98 µM) | 4 (≈ 9.96 µM)
3 | C[C@H]1COc2c(N3CCN(C)CC3)c(F)cc3c(=O)c(C(=O)O)cn1c23.C[C@H]1COc2c(N3CCN(C)CC3)c(F)cc3c(=O)c(C(=O)O)cn1c23.O [LEVOFLOXACIN] |  | 8 | 16
4 | COc1c(N2CCNC(C)C2)c(F)cc2c(=O)c(C(=O)O)cn(C3CC3)c12 (stereo unspecified) [GATIFLOXACIN] |  | 1 (≈ 2.66 µM) | 2 (≈ 5.33 µM)
5 | CO[C@H]1/C=C/O[C@@]2(C)Oc3c(C)c(O)c4c(O)c(c(/C=N/N5CCN(C)CC5)c(O)c4c3C2=O)NC(=O)/C(C)=C\C=C\[C@H](C)[C@H](O)[C@@H](C)[C@@H](O)[C@@H](C)[C@H](OC(C)=O)[C@@H]1C [RIFAMPIN] |  | 128 (≈ 156 µM) | > 128
